This note sets out measurements from patent publication US7265120B2, “Pyrazine derivatives and pharmaceutical use thereof” (Astellas Pharma Inc., priority 2004, dated 2007).

As a reminder, the melting point is the temperature of the solid-liquid transition. As for `CC(C)n1nc(-c2nc(C#C[Si](C)(C)C)c(N)nc2-c2ccccc2)ccc1=O`, the melting point lay in the range of 213 to 215 °C.
The result for `CC(C)n1nc(-c2nc(C3=CCN(C)CC3)c(N)nc2-c2ccccc2)ccc1=O` reads 209 to 211 °C; that for `CC(C)n1nc(-c2ncc(O)nc2-c2ccccc2)ccc1=O` [Example 1, 6-(5-hydroxy-3-phenyl-2-pyrazinyl)-2-isopropyl-3(2H)-pyridazinone], 225 to 227 °C.
The result for `Cc1nc(-c2ccc(=O)n(C(C)C)n2)c(-c2ccccc2)nc1O` [Example 2, 6-(5-Hydroxy-6-methyl-3-phenyl-2-pyrazinyl)-2-isopropyl-3(2H)-pyridazinone] reads > 250 °C; that for `Cc1nc(-c2ccc(=O)n(C(C)C)n2)c(-c2ccccc2)nc1N` [Example 3, 6-(5-amino-6-methyl-3-phenyl-2-pyrazinyl)-2-isopropyl-3(2H)-pyridazinone], 208 to 209.5 °C; that for `CC(C)n1nc(-c2nc(C#N)c(C#N)nc2-c2ccccc2)ccc1=O` [Example 4, 5-(1-isopropyl-6-oxo-1,6-dihydro-3-pyridazinyl)-6-phenyl-2,3-pyrazinedicarbonitrile], 201 to 202 °C.
The result for `CC(C)n1nc(-c2nc(C#N)c(N)nc2-c2ccccc2)ccc1=O` [Example 6, 3-amino-6-(1-isopropyl-6-oxo-1,6-dihydro-3-pyridazinyl)-5-phenyl-2-pyrazinecarbonitrile] reads 231 to 233 °C.
Turning to `CC(C)n1nc(-c2nc(C(N)=O)c(N)nc2-c2ccccc2)ccc1=O` [Example 7, 3-amino-6-(1-isopropyl-6-oxo-1,6-dihydro-3-pyridazinyl)-5-phenyl-2-pyrazinecarboxamide], the melting point lay within 224 to 226 °C.
Take `CC(C)n1nc(-c2nc(C(=O)O)c(N)nc2-c2ccccc2)ccc1=O` [Example 8, 3-amino-6-(1-isopropyl-6-oxo-1,6-dihydro-3-pyridazinyl)-5-phenyl-2-pyrazinecarboxylic acid]: the melting point lay within 233 to 235 °C.
The result for `CC(C)n1nc(-c2ncc(N)nc2-c2ccccc2)ccc1=O` [Example 9, 6-(5-amino-3-phenyl-2-pyrazinyl)-2-isopropyl-3(2H)-pyridazinone] reads 204 to 206 °C; that for `CCn1nc(-c2nc(C#N)c(C#N)nc2-c2ccccc2)ccc1=O` [Example 11, 5-(1-Ethyl-6-oxo-1,6-dihydro-3-pyridazinyl)-6-phenyl-2,3-pyrazinedicarbonitrile], 201 to 203 °C; that for `CCn1nc(-c2nc(C#N)c(NCc3ccc(OC)cc3)nc2-c2ccccc2)ccc1=O` [Example 12, 6-(1-Ethyl-6-oxo-1,6-dihydro-3-pyridazinyl)-3-[(4-methoxybenzyl)amino]-5-phenyl-2-pyrazinecarbonitrile], 165.5 to 167.5 °C.
The result for `CCn1nc(-c2nc(C#N)c(N)nc2-c2ccccc2)ccc1=O` [Example 13, 3-Amino-6-(1-ethyl-6-oxo-1,6-dihydro-3-pyridazinyl)-5-phenyl-2-pyrazinecarbonitrile] reads > 250 °C; that for `CCn1nc(-c2nc(C(N)=O)c(N)nc2-c2ccccc2)ccc1=O` [Example 14, 3-Amino-6-(1-ethyl-6-oxo-1,6-dihydro-3-pyridazinyl)-5-phenyl-2-pyrazinecarboxamide], > 250 °C.
The result for `Cn1nc(-c2nc(C#N)c(C#N)nc2-c2ccccc2)ccc1=O` [Example 15, 5-(1-Methyl-6-oxo-1,6-dihydro-3-pyridazinyl)-6-phenyl-2,3-pyrazinedicarbonitrile] reads 210 to 212 °C; that for `COc1ccc(CNc2nc(-c3ccccc3)c(-c3ccc(=O)n(C)n3)nc2C#N)cc1` [Example 16, 3-[(4-Methoxybenzyl)amino]-6-(1-methyl-6-oxo-1,6-dihydro-3-pyridazinyl)-5-phenyl-2-pyrazinecarbonitrile], 166.5 to 168 °C; that for `Cn1nc(-c2nc(C(N)=O)c(N)nc2-c2ccccc2)ccc1=O` [Example 18, 3-Amino-6-(1-methyl-6-oxo-1,6-dihydro-3-pyridazinyl)-5-phenyl-2-pyrazinecarboxamide], > 250 °C.
On to `Cn1nc(-c2nc(C(=O)O)c(N)nc2-c2ccccc2)ccc1=O` [Example 19, 3-Amino-6-(1-methyl-6-oxo-1,6-dihydro-3-pyridazinyl)-5-phenyl-2-pyrazinecarboxylic acid], for which the melting point is 238 °C (dec.).
The result for `Cn1nc(-c2ncc(N)nc2-c2ccccc2)ccc1=O` [Example 20, 6-(5-Amino-3-phenyl-2-pyrazinyl)-2-methyl-3(2H)-pyridazinone] reads 202 to 204 °C; that for `CC(C)n1nc(-c2nc(N)c(C#N)nc2-c2ccccc2)ccc1=O` [Example 21, 3-Amino-5-(1-isopropyl-6-oxo-1,6-dihydro-3-pyridazinyl)-6-phenyl-2-pyrazinecarbonitrile], 238 to 241 °C; that for `COc1nc(-c2ccccc2)c(-c2ccc(=O)n(C(C)C)n2)nc1C#N` [Example 22, 6-(1-isopropyl-6-oxo-1,6-dihydro-3-pyridazinyl)-3-methoxy-5-phenyl-2-pyrazinecarbonitrile], 170 to 172 °C.
The result for `CC(C)n1nc(-c2nc(C#N)c(C(N)=O)nc2-c2ccccc2)ccc1=O` [Example 23, 3-Cyano-5-(1-isopropyl-6-oxo-1,6-dihydro-3-pyridazinyl)-6-phenyl-2-pyrazinecarboxamide] reads > 250 °C; that for `CC(C)n1nc(-c2nc(C(N)=O)c(C#N)nc2-c2ccccc2)ccc1=O` [Example 23, 3-Cyano-6-(1-isopropyl-6-oxo-1,6-dihydro-3-pyridazinyl)-5-phenyl-2-pyrazinecarboxamide], 195 to 197 °C.
`COC(=O)c1nc(-c2ccc(=O)n(C(C)C)n2)c(-c2ccccc2)nc1OC` [Example 24, Methyl 6-(1-isopropyl-6-oxo-1,6-dihydro-3-pyridazinyl)-3-methoxy-5-phenyl-2-pyrazinecarboxylate]: the melting point fell in the range of 170 to 171 °C.
Under `CC(C)n1nc(-c2nc(C#N)c(NC=O)nc2-c2ccccc2)ccc1=O` [Example 25, [3-Cyano-5-(1-isopropyl-6-oxo-1,6-dihydro-3-pyridazinyl)-6-phenyl-2-pyrazinyl]formamide] stands 198 to 200 °C.
The result for `CC(C)n1nc(-c2nc(NC=O)c(C#N)nc2-c2ccccc2)ccc1=O` [Example 25, [3-Cyano-6-(1-isopropyl-6-oxo-1,6-dihydro-3-pyridazinyl)-5-phenyl-2-pyrazinyl]formamide] reads 206 to 208 °C; that for `CC(C)n1nc(-c2nc(C(N)=S)c(N)nc2-c2ccccc2)ccc1=O` [Example 26, 3-amino-6-(1-isopropyl-6-oxo-1,6-dihydro-3-pyridazinyl)-5-phenyl-2-pyrazinecarbothioamide], > 250 °C.
The result for `Cc1csc(-c2nc(-c3ccc(=O)n(C(C)C)n3)c(-c3ccccc3)nc2N)n1` [Example 27, 6-[5-amino-6-(4-methyl-thiazol-2-yl)-3-phenyl-2-pyrazinyl]-2-isopropyl-3(2H)-pyridazinone] reads 238 to 240 °C.
